# Laboratory results published in PMC3192407, “Both Basic and Acidic Amino Acid Residues of IpTxa Are Involved in Triggering Substate of RyR1” (Journal of Biomedicine and Biotechnology, 2011).
# Like-named read-outs stand apart in the source and are kept apart here. Bridge positions count the residues as written; N and C are the ends. Peptide text beside a SMILES is read from it.
# Tests used:
# [1] = target: rabbit skeletal ryanodine receptor (RyR1) (rabbit) (UniProt P11716)
# [2] = tested on: RyR1; conditions: ref [16], [18]; cited from earlier work
# Description: Imperatoxin A (IpTxa) from the African scorpion Pandinus imperator is a high-affinity modulator of skeletal RyR (RyR1). […] The inconsistency between occurrence of substate and ryanodine binding to RyR1 affected by K8A or T ...
# [3] = tested on: RyR1; conditions: cited from earlier work
# Description: Imperatoxin A (IpTxa) from the African scorpion Pandinus imperator is a high-affinity modulator of skeletal RyR (RyR1). […] Stretches of these positively charged residues tend to adopt different secondary structures such as α-helical structure for Peptide A and β-sheet structure for IpTxa and MCa. However, their orientation on the surface of the peptides could be similar. […] Two toxins induced different degree of substate of RyR1 at +40 mV holding potential (28% and 48% of full conductance state for IpTxa and MCa, resp.). […] Thus, the di ...
# [4] = target: T1, rabbit skeletal RyR1 (native RyR1 in HSR) (Oryctolagus cuniculus, UniProt P11716); experiment: Planar lipid bilayer single-channel recording, native RyR1 in HSR; format: biochemical; conditions: -30 mV
# T1 construct: tested using native RyR1 in rabbit skeletal HSR; from tissue; host or cells: rabbit fast-twitch back and leg muscles (heavy SR vesicles)
# T1 sequence (P11716 whole entry): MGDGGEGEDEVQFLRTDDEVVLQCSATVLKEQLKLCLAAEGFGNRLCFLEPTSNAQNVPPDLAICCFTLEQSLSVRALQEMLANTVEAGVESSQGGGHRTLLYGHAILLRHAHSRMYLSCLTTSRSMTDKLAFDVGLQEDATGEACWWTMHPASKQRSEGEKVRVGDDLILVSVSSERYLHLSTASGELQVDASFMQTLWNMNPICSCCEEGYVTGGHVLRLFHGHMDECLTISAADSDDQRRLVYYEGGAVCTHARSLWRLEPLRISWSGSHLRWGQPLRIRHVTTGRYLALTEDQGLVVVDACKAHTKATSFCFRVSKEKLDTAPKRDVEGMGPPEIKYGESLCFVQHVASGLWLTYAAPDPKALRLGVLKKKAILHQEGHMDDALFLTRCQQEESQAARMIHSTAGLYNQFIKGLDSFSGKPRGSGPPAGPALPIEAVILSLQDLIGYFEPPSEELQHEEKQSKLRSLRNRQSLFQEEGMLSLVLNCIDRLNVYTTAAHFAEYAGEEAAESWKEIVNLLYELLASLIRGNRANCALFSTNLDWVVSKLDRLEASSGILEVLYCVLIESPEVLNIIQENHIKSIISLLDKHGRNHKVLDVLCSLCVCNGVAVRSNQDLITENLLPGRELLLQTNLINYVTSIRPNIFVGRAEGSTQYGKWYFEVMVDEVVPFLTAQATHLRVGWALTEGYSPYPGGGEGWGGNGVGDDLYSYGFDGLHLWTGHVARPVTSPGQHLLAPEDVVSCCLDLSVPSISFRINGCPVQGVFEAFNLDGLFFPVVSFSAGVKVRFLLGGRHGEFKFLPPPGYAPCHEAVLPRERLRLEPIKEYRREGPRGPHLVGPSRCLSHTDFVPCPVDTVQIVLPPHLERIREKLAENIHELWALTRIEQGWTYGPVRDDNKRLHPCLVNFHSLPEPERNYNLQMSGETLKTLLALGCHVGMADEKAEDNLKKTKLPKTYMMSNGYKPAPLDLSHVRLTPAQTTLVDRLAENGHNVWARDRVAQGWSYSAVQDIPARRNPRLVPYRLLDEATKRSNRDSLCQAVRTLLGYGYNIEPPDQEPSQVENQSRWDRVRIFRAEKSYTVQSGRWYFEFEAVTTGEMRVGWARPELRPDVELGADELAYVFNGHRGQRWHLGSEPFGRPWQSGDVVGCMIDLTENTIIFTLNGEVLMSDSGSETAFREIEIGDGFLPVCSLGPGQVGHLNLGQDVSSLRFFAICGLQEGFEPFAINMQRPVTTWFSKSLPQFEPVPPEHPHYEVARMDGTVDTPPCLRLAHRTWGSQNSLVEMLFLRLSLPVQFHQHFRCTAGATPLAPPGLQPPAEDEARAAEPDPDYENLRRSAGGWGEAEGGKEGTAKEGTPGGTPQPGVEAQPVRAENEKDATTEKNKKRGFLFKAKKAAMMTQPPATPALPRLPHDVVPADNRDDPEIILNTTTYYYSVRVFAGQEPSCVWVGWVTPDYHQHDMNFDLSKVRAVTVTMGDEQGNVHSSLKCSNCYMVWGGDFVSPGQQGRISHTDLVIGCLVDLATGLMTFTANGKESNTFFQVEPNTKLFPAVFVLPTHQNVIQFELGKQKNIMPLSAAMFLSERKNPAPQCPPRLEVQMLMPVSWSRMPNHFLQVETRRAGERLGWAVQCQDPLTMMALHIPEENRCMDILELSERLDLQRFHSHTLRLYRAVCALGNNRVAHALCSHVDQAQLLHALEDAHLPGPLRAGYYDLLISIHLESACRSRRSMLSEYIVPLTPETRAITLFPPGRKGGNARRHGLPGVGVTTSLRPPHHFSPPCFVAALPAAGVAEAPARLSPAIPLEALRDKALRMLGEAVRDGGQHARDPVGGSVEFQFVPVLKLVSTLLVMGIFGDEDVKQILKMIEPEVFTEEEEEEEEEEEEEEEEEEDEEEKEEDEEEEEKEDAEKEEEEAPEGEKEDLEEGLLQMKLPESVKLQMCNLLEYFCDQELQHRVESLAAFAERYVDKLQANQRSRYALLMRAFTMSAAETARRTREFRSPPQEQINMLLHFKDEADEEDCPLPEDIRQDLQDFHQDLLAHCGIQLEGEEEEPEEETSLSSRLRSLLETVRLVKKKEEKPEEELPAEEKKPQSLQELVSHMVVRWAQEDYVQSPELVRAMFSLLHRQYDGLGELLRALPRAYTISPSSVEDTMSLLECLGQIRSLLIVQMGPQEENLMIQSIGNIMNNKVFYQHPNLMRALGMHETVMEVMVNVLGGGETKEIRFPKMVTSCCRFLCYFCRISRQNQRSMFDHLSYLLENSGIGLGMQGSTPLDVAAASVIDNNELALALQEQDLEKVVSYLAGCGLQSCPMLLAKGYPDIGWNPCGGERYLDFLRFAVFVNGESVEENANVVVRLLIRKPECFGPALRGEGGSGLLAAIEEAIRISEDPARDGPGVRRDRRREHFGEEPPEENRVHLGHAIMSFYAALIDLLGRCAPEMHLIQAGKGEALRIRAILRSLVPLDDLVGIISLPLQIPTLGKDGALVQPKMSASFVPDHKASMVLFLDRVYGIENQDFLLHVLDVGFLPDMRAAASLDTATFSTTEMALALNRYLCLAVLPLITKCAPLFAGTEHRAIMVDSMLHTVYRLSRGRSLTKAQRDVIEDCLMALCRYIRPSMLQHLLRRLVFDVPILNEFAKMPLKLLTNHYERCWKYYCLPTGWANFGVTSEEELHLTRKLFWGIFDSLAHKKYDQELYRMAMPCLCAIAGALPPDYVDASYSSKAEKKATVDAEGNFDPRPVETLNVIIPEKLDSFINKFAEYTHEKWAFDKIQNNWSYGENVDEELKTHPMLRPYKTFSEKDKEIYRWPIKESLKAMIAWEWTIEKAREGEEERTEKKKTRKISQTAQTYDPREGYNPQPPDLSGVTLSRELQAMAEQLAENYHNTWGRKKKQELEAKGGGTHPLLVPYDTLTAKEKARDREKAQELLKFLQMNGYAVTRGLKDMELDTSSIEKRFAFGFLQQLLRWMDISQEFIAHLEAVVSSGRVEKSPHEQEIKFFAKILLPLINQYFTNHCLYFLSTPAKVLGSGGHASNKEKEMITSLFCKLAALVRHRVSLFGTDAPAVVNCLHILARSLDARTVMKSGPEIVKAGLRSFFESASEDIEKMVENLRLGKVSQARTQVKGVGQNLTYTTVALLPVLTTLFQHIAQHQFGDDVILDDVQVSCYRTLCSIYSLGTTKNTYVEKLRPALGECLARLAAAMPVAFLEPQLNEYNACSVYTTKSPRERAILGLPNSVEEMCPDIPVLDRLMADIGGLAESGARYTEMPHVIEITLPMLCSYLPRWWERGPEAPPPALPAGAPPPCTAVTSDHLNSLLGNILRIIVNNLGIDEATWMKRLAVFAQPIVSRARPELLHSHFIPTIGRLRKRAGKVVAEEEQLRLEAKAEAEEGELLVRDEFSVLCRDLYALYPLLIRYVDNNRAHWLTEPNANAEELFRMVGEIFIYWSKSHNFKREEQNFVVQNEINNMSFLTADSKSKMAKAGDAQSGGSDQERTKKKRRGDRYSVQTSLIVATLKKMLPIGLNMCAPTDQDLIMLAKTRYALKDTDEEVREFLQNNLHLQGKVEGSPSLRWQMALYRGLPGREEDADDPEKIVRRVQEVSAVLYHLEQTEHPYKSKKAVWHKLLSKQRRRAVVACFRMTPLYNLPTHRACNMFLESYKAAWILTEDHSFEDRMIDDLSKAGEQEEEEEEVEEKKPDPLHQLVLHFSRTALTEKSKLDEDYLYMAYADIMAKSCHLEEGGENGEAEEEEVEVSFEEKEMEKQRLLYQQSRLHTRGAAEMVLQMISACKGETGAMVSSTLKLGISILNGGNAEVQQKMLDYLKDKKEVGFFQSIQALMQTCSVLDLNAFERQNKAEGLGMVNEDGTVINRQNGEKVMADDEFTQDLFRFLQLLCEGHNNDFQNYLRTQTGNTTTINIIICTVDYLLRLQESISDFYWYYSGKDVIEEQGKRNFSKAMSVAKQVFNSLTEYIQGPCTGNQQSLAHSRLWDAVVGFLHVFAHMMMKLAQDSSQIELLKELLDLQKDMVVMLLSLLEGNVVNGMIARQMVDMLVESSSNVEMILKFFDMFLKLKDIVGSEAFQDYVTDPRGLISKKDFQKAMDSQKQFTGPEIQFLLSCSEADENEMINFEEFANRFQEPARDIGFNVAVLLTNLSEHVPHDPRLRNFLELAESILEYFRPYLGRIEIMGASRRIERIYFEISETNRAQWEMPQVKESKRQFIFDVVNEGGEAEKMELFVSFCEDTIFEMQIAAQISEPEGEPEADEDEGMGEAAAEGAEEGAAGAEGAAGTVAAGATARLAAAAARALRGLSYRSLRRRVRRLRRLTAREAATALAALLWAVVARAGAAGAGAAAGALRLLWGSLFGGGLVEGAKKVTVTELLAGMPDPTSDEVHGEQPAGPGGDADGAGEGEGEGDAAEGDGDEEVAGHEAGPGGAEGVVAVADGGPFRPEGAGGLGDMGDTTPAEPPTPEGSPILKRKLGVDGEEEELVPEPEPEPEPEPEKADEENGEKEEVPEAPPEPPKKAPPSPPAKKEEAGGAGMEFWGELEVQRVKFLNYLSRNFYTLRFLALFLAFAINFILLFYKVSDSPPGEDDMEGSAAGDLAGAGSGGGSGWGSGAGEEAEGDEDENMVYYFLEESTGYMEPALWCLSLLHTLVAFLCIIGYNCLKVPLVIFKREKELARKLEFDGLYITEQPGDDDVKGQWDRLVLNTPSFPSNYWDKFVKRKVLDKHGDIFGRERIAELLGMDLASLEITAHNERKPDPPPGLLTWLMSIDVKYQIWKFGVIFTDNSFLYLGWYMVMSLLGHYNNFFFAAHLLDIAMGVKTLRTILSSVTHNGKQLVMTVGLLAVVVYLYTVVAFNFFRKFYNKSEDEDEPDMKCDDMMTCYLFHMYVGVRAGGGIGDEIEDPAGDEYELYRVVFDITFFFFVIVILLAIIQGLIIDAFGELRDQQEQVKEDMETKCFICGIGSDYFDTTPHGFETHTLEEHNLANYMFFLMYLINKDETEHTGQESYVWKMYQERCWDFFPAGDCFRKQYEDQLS
# [5] = target: T2, purified rabbit RyR1 (Oryctolagus cuniculus, UniProt P11716); experiment: Planar lipid bilayer single-channel recording, purified RyR1; format: biochemical; conditions: purified RyR1, toxin cis, 6-100 nM, -30 mV, 10 μM Ca^2+, Hill fit, means ± SE of 4–10 experiments; read-out: EC50 for Psubstate
# T2 construct: we added IpTxa to purified RyR1 incorporated into planar lipid bilayers; from tissue; host or cells: rabbit skeletal muscle (inferred; purified from HSR)
# T2 sequence (P11716 whole entry): as above
# Description: Single-channel recordings of rabbit skeletal RyR1 incorporated into planar lipid bilayers were carried out as described previously. Lipid bilayers, consisting of brain tissue phosphatidylethanolamine and phosphatidylserine (1 : 1) in decane (20 mg/mL) were formed across a hole of approximately 200 μm diameter. Thinning of the bilayer was monitored by bilayer capacitance. The basic composition of the cis/trans solution consisted of 300 mM cesium methanesulfonate, 10 mM Tris/Hepes (pH 7.2), 2 mM EGTA, and 1.998 mM CaCl2 ([Ca^2+]free = 10 μM). [Ca^2+]free was calculated using the “Chelator” program (Theo Schoenmaker). Cs^+ was selected as the charge carrier to ensure precise control of free [Ca^2+], to increase the channel conductance, and to avoid any contribution from potassium channels present in the SR membrane. Chloride channels were inhibited by using the impermeant anion methanesulfonate. Incorporation of ion channels was carried out as described by Miller and Racker and confirmed by recording the characteristically high single-channel conductance of RyRs. The trans side was maintained at ground and the cis side was clamped at −30 mV relative to the ground. After addition of the IpTxa to the cis chamber, the single channel data were collected at −30 mV for 2–5 min. […] Recordings were filtered with an 8-pole low-pass Bessel filter at 1 kHz and digitalized through a Digidata 1200 series interface (Axon Instruments). Data acquisition and analysis were done with the Axon Instruments software, pClamp v7.0.
# Data were analyzed using the Hill equation described previously:
# (1) Psubstate=(Psubstate, max )/[1+(EC50/[IpTxa])^nH] orPo=(Po, max )/[1+(EC50/[IpTxa])^nH], where (Po, max ) is the Po observed at saturating concentrations of IpTxa, EC50 is the IpTxa concentration for which 50% of Po, max is obtained and nH is the Hill coefficient. Also, Psubstate, max is the Psubstate observed at saturating concentrations of IpTxa, EC50 is the IpTxa concentration for which 50% of Psubstate, max is obtained, and nH is the Hill coefficient. The probability of full open state of the channel (Po) was defined as the ratio of the time spent in the open state to the total time exclusive of time spent in the substate. The probability to obtain substate (Psubstate) was calculated as the time spent in the substate divided by a given total recording time. The durations of the substate were obtained by manual positioning of the cursors and constructing all point histograms. Mean duration of substate was measured by total substate time divided by total substate frequencies.
# Results are given as means ± SE. Significant differences were analyzed using Student's t-test. Differences were considered to be significant when P < 0.05. The fitting of the data to the graphs were carried out using the software, Origin v7.
# To determine whether the activation of native RyR1 in SR by IpTxa was due to a direct activation of RyR1 or due to an indirect activation through other proteins associated to RyR1, we added IpTxa to purified RyR1 incorporated into planar lipid bilayers (Figure 3(a)). […] Purity of RyR1 at the final purification step was verified by Coomassie blue staining (Supplementary Figure 2).
# Figure 3 Effects of IpTxa on purified rabbit RyR1 incorporated in planar lipid bilayers. (a) Single channel activity of purified RyR1 incorporated in planar lipid bilayers at 10 μM Ca^2+ with or without IpTxa (6–100 nM) was recorded. Single channel currents are shown as downward deflections from the closed level (indicated by c). The holding potential was −30 mV. (b) The plot of Po of purified RyR1 versus various concentrations of IpTxa is shown. (c) The plot of Psubstate of purified RyR1 versus various concentrations of IpTxa is shown. The results are shown as the means ± SE for 7 experiments. […]
compound,measurement,setting,value
IpTxa R9A (from UniProt P59868 1-33) (peptide),mean duration of substate of native RyR1 in HSR at 30 nM toxin,[1],5.86 s
maurocalcine [MCa],[^3H]ryanodine binding (in words),[2],strongly enhances [^3H]ryanodine binding to RyR1
same,"substate current amplitude, % of full conductance state","[3]; +40 mV holding potential, ref [10], [13]",48%
same,"substate current amplitude, % of full conductance","[3]; long-lasting substate of RyR1, ref [16], [18]",48%
same,modification of channel gating by MCa and peptide A together (in words),[3]; ref [16],"in an additive, but not competitive, manner"
IpTxa D2A (from UniProt P59868 1-33) (peptide),mean duration of substate of native RyR1 in HSR at 30 nM toxin,[1],2.96 s
"CC(C)C[C@@H]1NC(=O)[C@H](Cc2c[nH]cn2)NC(=O)[C@@H]2CCCN2C(=O)[C@H](CC(C)C)NC(=O)[C@@H](NC(=O)[C@H](CC(=O)O)NC(=O)CN)CSSC[C@@H]2NC(=O)[C@@H]3CSSC[C@@H](C(=O)N[C@@H](CCCNC(=N)N)C(=O)O)NC(=O)[C@H](CCCNC(=N)N)NC(=O)[C@H](CCCCN)NC(=O)[C@H](CCC(=O)O)NC(=O)[C@H](C)NC(=O)[C@H](CC(N)=O)NC(=O)[C@H]([C@@H](C)O)NC(=O)CNC(=O)[C@H](CCCNC(=N)N)NC(=O)[C@H](CCCNC(=N)N)NC(=O)[C@H](CCCCN)NC(=O)[C@H](CSSC[C@H](NC(=O)[C@H](CCCNC(=N)N)NC(=O)[C@H](CCCCN)NC1=O)C(=O)N[C@@H](CCCCN)C(=O)N[C@@H](C)C(=O)N[C@@H](CC(=O)O)C(=O)N[C@@H](CC(N)=O)C(=O)N[C@@H](CC(=O)O)C(=O)N3)NC(=O)[C@H](CCCCN)NC(=O)[C@H](CCCCN)NC(=O)CNC2=O [Wild type, Imperatoxin A] (H-GDCLPHLKRCKADNDCCGKKCKRRGTNAEKRCR-OH; disulfide 3-17, 10-21, 16-32)",EC50,"[4]; native RyR1, toxin cis, 10 μM Ca^2+, Hill fit, means ± SE of ten experiments, read-out: EC50 for Po",17.4 ± 4.67 nM
same,EC50,"[4]; native RyR1 in SR, toxin cis, 6-100 nM, [Ca^2+]free 10 μM, pH 7.2, Hill fit, means ± SE of 3–9 experiments, read-out: EC50 for Psubstate",23.3 ± 2.37 nM
same,EC50,[5],17.1 ± 2.31 nM
"Imperatoxin A (IpTxa), synthetic wild type (from UniProt P59868 1-33) (peptide)",mean duration of substate of native RyR1 in HSR at 30 nM toxin,[1],4.56 s
